According to patent publication US4722922A, “Tetrapeptide amides in the treatment of hypertension” (priority 1985, dated 1988):
Structures can show the parent of a compound that is named as a salt. Non-standard residues stand in square brackets, D forms with d. Residues, ends and D or L forms follow the SMILES beside them. No end group written: not given here. *: point of attachment. dTyr(3-tBu) = CC(C)(C)c1cc(C[C@@H](N)C(=O)O)ccc1O; Tyr(3-tBu) = CC(C)(C)c1cc(C[C@H](N)C(=O)O)ccc1O; dMet(O2) = CS(=O)(=O)CC[C@@H](N)C(=O)O; Sta = CC(C)C[C@H](N)[C@@H](O)CC(=O)O; Isovaleryl = CC(C)CC(=O)*; Ahx = NCCCCCC(=O)O

Columns and labels:
[1] = biological target: T1, human renin (Homo sapiens, UniProt P00797); experiment: Inhibition of Human Renin (angiotensin I formation, radioimmunoassay); type: biochemical; conditions: for % Inhibition: human renin test, 0.1 mGU/ml human renin, human plasma, two-hour incubation at 37° C., pH 7.5, test compound concentration not given
T1 construct: human renin, isolated from kidneys, was obtained from the World Health Organization International Laboratory for Biological Standards; tissue World Health Organization International Laboratory for Biological Standards (National Institute for Biological Standards and Control, London, England); host or cells: human kidney
T1 sequence (P00797 67-406): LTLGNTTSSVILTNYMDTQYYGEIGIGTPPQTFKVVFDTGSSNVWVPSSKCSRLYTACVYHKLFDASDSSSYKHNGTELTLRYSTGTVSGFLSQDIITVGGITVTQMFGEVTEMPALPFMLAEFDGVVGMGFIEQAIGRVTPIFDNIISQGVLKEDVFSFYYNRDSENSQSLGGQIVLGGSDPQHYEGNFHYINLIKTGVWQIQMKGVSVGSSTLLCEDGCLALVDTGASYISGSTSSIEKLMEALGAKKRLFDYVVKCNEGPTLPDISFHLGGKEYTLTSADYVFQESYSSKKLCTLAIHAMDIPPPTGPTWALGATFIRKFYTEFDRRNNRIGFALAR
Experimental: The renin inhibition activity of the compounds of this invention illustrated in the examples was tested by the following method.
Inhibition of Human Renin
International reference standard human renin, isolated from kidneys, was obtained from the World Health Organization International Laboratory for Biological Standards (National Institute for Biological Standards and Control, London, England). Renin activity is defined in "Goldblatt units" (GU), the quantity that, when injected directly into the blood stream of an unanesthetized dog, raises the direct mean femoral artery blood pressure by 30 mm Hg in about two minutes. E. Haas, L. Lewis, P. Scipione, and T. J. Koshy, Hypertension, 1, 112-117 (1979). Human angiotensinogen was used as an unisolated component of human blood plasma. The enzyme inhibition assay, see K. Poulsen, J. Burton, and E. Haber, Biochemistry, 12, 3877-3882 (1973), involved a two-hour incubation at 37° C. of the following final concentrations of reagents (0.25 ml total volume): 0.1 mGU/ml human renin; 0.05 ml human plasma; 6 mM disodium EDTA; 2.4 mM phenylmethylsulfonyl fluoride and 1.5 mM 8-hydroxyquinoline (angiotensinase inhibitors); 0.4 mg/ml bovine serum albumin; and 0.024 neomycin sulfate in 100 mM Tris-acetate buffer (pH 7.5). The enzymatic reaction was terminated by boiling the mixture for ten minutes. The quantity of angiotensin I formed was determined by radioimmunoassay, using the general method used in the angiotensin I radioimmunoassay kit of New England Nuclear.

[2] = tested on: renal-ligated hypertensive rat; experiment: Renal-ligated Hypertensive Rat Assay; type: in vivo, Sprague Dawley rats; conditions: renal-ligated rats
Experimental: Renal-ligated Hypertensive Rat Assay
Male Sprague Dawley rats aged 11 to 15 weeks old were used in this test. […] Test compounds were administered intra-arterially at a dose of 10 mg per kg of body weight, and blood pressure changes were monitored directly at 5, 10, and 15 minutes after injection.

Row | Molecule | % Inhibition [1] | further results
1 | 2,4-dimethyl-3-hydroxyphenylalanyl-D-methionylglycyl-N-(6-methoxy-6-oxohexyl)-L-phenylalaninamide monohydrochloride hemihydrate [Example 77] | 73% | –
2 | COC(=O)CCCCCNC(=O)[C@H](Cc1ccccc1)NC(=O)CNC(=O)[C@@H](CCSC)NC(=O)[C@@H](N)Cc1ccc(OC(=O)OCC(C)C)c(C(C)(C)C)c1.Cl (racemic) [Example 69, O-(2-methylpropoxycarbonyl)-3-t-butyl-tyrosyl-D-methionylglycyl-N-(6-methoxy-6-oxohexyl)-L-phenylalaninamide monohydrochloride] | 43% | –
3 | COC(=O)CCCCCNC(=O)[C@H](Cc1ccccc1)NC(=O)CNC(=O)[C@@H](CCS(C)(=O)=O)NC(=O)[C@@H](N)Cc1ccc(O)c(C(C)(C)C)c1 [Example 73, 3-t-butyl-L-tyrosyl-[4-(methylsulfonyl)-D-2-aminobutanoyl]glycyl-N-(6-methoxy-6-oxohexyl)-L-phenylalaninamide monohydrochloride hemihydrate] (H-[Tyr(3-tBu)][dMet(O2)]GF[Ahx]-OMe) | 21% | –
4 | COC(=O)CCCCCNC(=O)[C@H](Cc1ccccc1)NC(=O)CNC(=O)[C@@H](CCS(C)(=O)=O)NC(=O)[C@H](N)Cc1ccc(O)c(C(C)(C)C)c1 [Example 74, 3-t-butyl-D-tyrosyl-[4-(methylsulfonyl)-D-2-aminobutanoyl]glycyl-N-(6-methoxy-6-oxohexyl)-L-phenylalaninamide monohydrochloride hemihydrate] (H-[dTyr(3-tBu)][dMet(O2)]GF[Ahx]-OMe) | 28% | –
5 | CC(C)CC(=O)N[C@H](C(=O)N[C@H](C(=O)N[C@@H](CC(C)C)[C@@H](O)CC(=O)N[C@@H](C)C(=O)N[C@@H](CC(C)C)[C@@H](O)CC(=O)O)C(C)C)C(C)C [Pepstatin] (Isovaleryl-VV[Sta]A[Sta]-OH) | – | plasma renin activity ([2]; same test conditions): significantly reduced; mean arterial blood pressure ([2]; test compounds given intra-arterially, pressure read at 5, 10 and 15 minutes after injection): significantly reduced
6 | O-(2-methylpropoxycarbonyl)-2,3,6-trimethyltyrosyl-[4-(methylsulfinyl)-D-2- aminobutanoyl]glycyl-N-(6-methoxy-6-oxohexyl)-L-phenylalaninamide monohydrochloride sesquihydrate [Example 58] | 26% | –
7 | O-(2-methylpropoxycarbonyl)-2-methyltyrosyl-D-methionylglycyl-N-(6-methoxy- 6-oxohexyl)-L-phenylalaninamide monohydrochloride hemihydrate [Example 63] | 23% | –
8 | O-(2-methylpropoxycarbonyl)-2-methyltyrosyl-[4-(methylsulfinyl)-D-2-aminobutanoyl]-glycyl-N-(6-methoxy-6-oxohexyl)-L-phenylalaninamide monohydrochloride hemihydrate [Example 64] | 22% | –
9 | O-(2-methylpropoxycarbonyl)-3-t-butyltyrosyl-[4-(methylsulfinyl)-D-2-aminobutanoyl]glycyl-N-(6-methoxy-6-oxohexyl)-L-phenylalaninamide monohydrochloride hemihydrate [Example 70] | 25% | –
10 | PHPFHLFVY [Pro-[Phe^6]octapeptide, prolylhistidylprolylphenylalanylhistidylleucylphenylalanylvalyltyrosine, reference compound] | – | activity in the human renin inhibition assay ([1]; stated in words): active
